Like-named read-outs stand apart in the source and are kept apart here. Numbered stars: 1 amine (or outer) side, 2 acyl side, 3 side chain; on linkers, the order of the positions; unused ones are H or OH. Square brackets hold non-standard residues; d marks the D form. Side chains are listed from the residue outwards. Peptide text beside a SMILES is read from it. * marks the point of attachment. C20 diacid = O=C(O)CCCCCCCCCCCCCCCCCCC(=O)*; γGlu = O=C(O)[C@H](CCC(=O)[*:2])N[*:1]; AEEA = NCCOCCOCC(=O)O; Aib = CC(C)(N)C(=O)O
Key:
[1] = Turbidity of crude library peptides (absorbance at 600 nm); type: physicochemical; conditions: Physical stability of peptides
How it was run: (§1)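 Crude peptides at 267 μM in 50 mM sodium acetate pH 4.0 or 50 mM sodium phosphate pH 7.0, pre-incubated 1-2 h at room temperature, then 4 μM final ThT added. Turbidity read first as A600. ThT fluorescence (ex 450/em 480 nm) read every 10 min for 72 h at 40° C, with 5 min shaking before each read; fibril formation = average emission.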

[2] = target: SCTR (Homo sapiens, UniProt P47872); test: hSCTR potency, cAMP accumulation in CHO-K1 cells stably overexpressing hSCTR; type: cell-based; set-up: alternatively Euroscreen ES-712-AF; FAST-0161L; host or cells: CHO-K1; conditions: cAMP accumulation, CHO-K1 cells overexpressing hSCTR
Sequence of SCTR (P47872 23-440): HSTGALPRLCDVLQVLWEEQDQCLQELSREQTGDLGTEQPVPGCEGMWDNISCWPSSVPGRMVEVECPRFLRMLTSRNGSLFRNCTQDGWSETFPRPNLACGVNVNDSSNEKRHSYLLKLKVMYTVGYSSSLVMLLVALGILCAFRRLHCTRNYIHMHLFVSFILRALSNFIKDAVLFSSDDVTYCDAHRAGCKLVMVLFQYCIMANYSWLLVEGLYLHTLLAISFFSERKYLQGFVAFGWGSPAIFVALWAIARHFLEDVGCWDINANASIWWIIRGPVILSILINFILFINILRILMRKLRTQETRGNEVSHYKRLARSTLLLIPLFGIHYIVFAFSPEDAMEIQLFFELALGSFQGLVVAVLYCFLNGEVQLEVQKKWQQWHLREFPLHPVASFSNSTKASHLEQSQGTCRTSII
How it was run: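 Cells plated at 2000/well in DPBS with 0.05% casein and 0.5 mM IBMX, stimulated 30 min at room temperature with graded compound doses; human secretin as positive control. cAMP read by TR-FRET after 1 h. Purified peptides tested at 11 3-fold dilutions, n=2; EC50 by variable-slope sigmoid fit.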

[3] = Fibril formation of crude library peptides (Thioflavin T); type: physicochemical; set-up: key: average ThT fluorescence emission at 480 nm (ex 450 nm), raw units; conditions: Physical stability of peptides
How it was run: as §1

[4] = target: GLP1R (Homo sapiens, UniProt P43220); test: hGLP1R potency, cAMP accumulation in CHO-K1 cells stably overexpressing hGLP1R; type: cell-based; set-up: host or cells: CHO-K1; conditions: for Selectivity: SCTR EC50/GLP1R EC50 ratio; for EC50: cAMP accumulation, CHO-K1 cells overexpressing hGLP1R; for SCTR EC50/GLP1R EC50 ratio: selectivity for hGLP1R over hSCTR, cAMP accumulation in CHO-K1 cells
Sequence of GLP1R (P43220 24-463): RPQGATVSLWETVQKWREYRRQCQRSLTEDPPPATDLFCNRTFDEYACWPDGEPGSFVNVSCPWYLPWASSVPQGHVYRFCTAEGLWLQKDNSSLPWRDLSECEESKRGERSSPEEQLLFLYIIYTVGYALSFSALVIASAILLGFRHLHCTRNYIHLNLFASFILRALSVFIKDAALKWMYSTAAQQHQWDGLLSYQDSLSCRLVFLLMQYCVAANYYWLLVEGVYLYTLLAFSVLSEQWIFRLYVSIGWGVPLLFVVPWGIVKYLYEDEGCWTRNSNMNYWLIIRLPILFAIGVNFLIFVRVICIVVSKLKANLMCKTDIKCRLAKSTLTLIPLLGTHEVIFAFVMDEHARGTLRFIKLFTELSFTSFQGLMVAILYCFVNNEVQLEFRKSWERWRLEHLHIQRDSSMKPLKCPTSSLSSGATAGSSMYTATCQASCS
How it was run: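 CHO-K1 cells stably expressing hGLP1R (2000/well) in DPBS with 0.05% casein and 0.5 mM IBMX were stimulated 30 min at room temperature with graded compound doses; human GLP-1(7-36) served as positive control. cAMP was read by HTRF after 1 h; EC50 came from variable-slope sigmoid fits (purified peptides: 11-point 3-fold, n=2).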

[5] = read-out: pEC50 hSCTR (converted)
[6] = read-out: pEC50 hGLPR1 (converted)
[7] = read-out: hSCTR pEC50 (converted)
[8] = read-out: hGLP1R pEC50 (converted)

SMILES | Turbidity (pH 7) [1] | EC50 [2, 5] [nM] | Fibril formation [3] | Selectivity [4] | EC50 [4, 6] [nM] | EC50 [2, 7] [nM] | EC50 [4, 8] [nM] | SCTR EC50/GLP1R EC50 ratio [4]
CC(C)C[C@H](NC(=O)[C@H](Cc1ccccc1)NC(=O)[C@H](CCCNC(=N)N)NC(=O)[C@H](CCC(N)=O)NC(=O)[C@@H](NC(=O)[C@H](C)NC(=O)[C@H](C)NC(=O)C(C)(C)NC(=O)[C@H](CCC(=O)O)NC(=O)[C@H](CCCCNC(=O)COCCOCCNC(=O)COCCOCCNC(=O)CC[C@H](NC(=O)CCCCCCCCCCCCCCCCCCC(=O)O)C(=O)O)NC(=O)[C@H](CC(C)C)NC(=O)[C@H](Cc1ccc(O)cc1)NC(=O)[C@H](CO)NC(=O)[C@@H](NC(=O)[C@H](CC(=O)O)NC(=O)[C@H](CO)NC(=O)[C@@H](NC(=O)[C@H](Cc1ccccc1)NC(=O)[C@@H](NC(=O)CNC(=O)[C@H](CCC(=O)O)NC(=O)C(C)(C)NC(=O)[C@@H](N)Cc1c[nH]cn1)[C@@H](C)O)[C@@H](C)O)C(C)C)[C@@H](C)O)C(=O)N[C@@H](CCC(=O)O)C(=O)N[C@@H](Cc1c[nH]cn1)C(=O)N[C@@H](CC(C)C)C(=O)N[C@H](C(N)=O)C(C)C [compound 48] (H-H[Aib]EGTFTSDVSYLK([AEEA-AEEA-γGlu-C20 diacid])E[Aib]AATQRFLEHLV-NH2) | 0.08 | 126 | 16290 | 5236 | 0.0251 | – | – | –
CC(C)C[C@H](NC(=O)[C@H](Cc1ccccc1)NC(=O)[C@H](CCCNC(=N)N)NC(=O)[C@H](CCC(N)=O)NC(=O)[C@H](CCC(=O)O)NC(=O)[C@H](C)NC(=O)[C@H](C)NC(=O)[C@@H](NC(=O)[C@H](CCC(=O)O)NC(=O)[C@H](CCCCNC(=O)COCCOCCNC(=O)COCCOCCNC(=O)CC[C@H](NC(=O)CCCCCCCCCCCCCCCCCCC(=O)O)C(=O)O)NC(=O)[C@H](CC(C)C)NC(=O)[C@H](Cc1ccc(O)cc1)NC(=O)[C@H](CO)NC(=O)[C@@H](NC(=O)[C@H](CC(=O)O)NC(=O)[C@H](CO)NC(=O)[C@@H](NC(=O)[C@H](Cc1ccccc1)NC(=O)[C@@H](NC(=O)CNC(=O)[C@H](CCC(=O)O)NC(=O)C(C)(C)NC(=O)[C@@H](N)Cc1c[nH]cn1)[C@@H](C)O)[C@@H](C)O)C(C)C)[C@@H](C)O)C(=O)N[C@@H](CCC(=O)O)C(=O)N[C@@H](Cc1c[nH]cn1)C(=O)N[C@@H](CC(C)C)C(=O)N[C@H](C(N)=O)C(C)C [compound 69] (H-H[Aib]EGTFTSDVSYLK([AEEA-AEEA-γGlu-C20 diacid])ETAAEQRFLEHLV-NH2) | 0.08 | 15800 | 14799 | 1030149 | 0.0158 | – | – | –
CC(C)C[C@H](NC(=O)[C@H](Cc1ccccc1)NC(=O)[C@H](CCCNC(=N)N)NC(=O)[C@H](CCC(N)=O)NC(=O)[C@H](CC(C)C)NC(=O)C(C)(C)NC(=O)[C@H](C)NC(=O)[C@H](CCC(=O)O)NC(=O)[C@H](CCC(=O)O)NC(=O)[C@H](CCCCNC(=O)COCCOCCNC(=O)COCCOCCNC(=O)CC[C@H](NC(=O)CCCCCCCCCCCCCCCCCCC(=O)O)C(=O)O)NC(=O)[C@H](CC(C)C)NC(=O)[C@H](Cc1ccc(O)cc1)NC(=O)[C@H](CO)NC(=O)[C@@H](NC(=O)[C@H](CC(=O)O)NC(=O)[C@H](CO)NC(=O)[C@@H](NC(=O)[C@H](Cc1ccccc1)NC(=O)[C@@H](NC(=O)CNC(=O)[C@H](CCC(=O)O)NC(=O)C(C)(C)NC(=O)[C@@H](N)Cc1c[nH]cn1)[C@@H](C)O)[C@@H](C)O)C(C)C)C(=O)N[C@@H](CCC(=O)O)C(=O)N[C@@H](Cc1ccccc1)C(=O)N[C@@H](CC(C)C)C(=O)N[C@H](C(N)=O)C(C)C [compound 133] (H-H[Aib]EGTFTSDVSYLK([AEEA-AEEA-γGlu-C20 diacid])EEA[Aib]LQRFLEFLV-NH2) | 0.08 | – | 4303 | – | – | 398 | 0.0158 | 23332
CC(C)C[C@H](NC(=O)[C@H](CCC(=O)O)NC(=O)[C@H](CCCCNC(=O)COCCOCCNC(=O)COCCOCCNC(=O)CC[C@H](NC(=O)CCCCCCCCCCCCCCCCCCC(=O)O)C(=O)O)NC(=O)[C@H](CC(C)C)NC(=O)[C@H](CCC(=O)O)NC(=O)[C@H](CO)NC(=O)[C@@H](NC(=O)[C@H](CC(=O)O)NC(=O)[C@H](CO)NC(=O)[C@@H](NC(=O)[C@H](Cc1ccccc1)NC(=O)[C@@H](NC(=O)CNC(=O)[C@H](CCC(=O)O)NC(=O)C(C)(C)NC(=O)[C@@H](N)Cc1c[nH]cn1)[C@@H](C)O)[C@@H](C)O)C(C)C)C(=O)N[C@@H](C)C(=O)N[C@@H](C)C(=O)N[C@H](C(=O)N[C@@H](CCC(N)=O)C(=O)N[C@@H](CCCNC(=N)N)C(=O)N[C@@H](Cc1ccccc1)C(=O)N[C@@H](CC(C)C)C(=O)N[C@@H](CCC(=O)O)C(=O)N[C@@H](Cc1c[nH]cn1)C(=O)N[C@@H](CC(C)C)C(=O)N[C@H](C(N)=O)C(C)C)[C@@H](C)O [compound 80] (H-H[Aib]EGTFTSDVSELK([AEEA-AEEA-γGlu-C20 diacid])ELAATQRFLEHLV-NH2) | 0.08 | 794 | 6999 | 33512 | 0.02 | – | – | –
CC(C)C[C@H](NC(=O)[C@H](Cc1ccccc1)NC(=O)[C@H](CCCNC(=N)N)NC(=O)[C@H](CCC(N)=O)NC(=O)[C@H](CO)NC(=O)[C@H](C)NC(=O)[C@H](C)NC(=O)[C@H](Cc1ccccc1)NC(=O)[C@H](CCC(=O)O)NC(=O)[C@H](CCCCNC(=O)COCCOCCNC(=O)COCCOCCNC(=O)CC[C@H](NC(=O)CCCCCCCCCCCCCCCCCCC(=O)O)C(=O)O)NC(=O)[C@H](CC(C)C)NC(=O)[C@@H](NC(=O)[C@H](CO)NC(=O)[C@@H](NC(=O)[C@H](CC(=O)O)NC(=O)[C@H](CO)NC(=O)[C@@H](NC(=O)[C@H](Cc1ccccc1)NC(=O)[C@@H](NC(=O)CNC(=O)[C@H](CCC(=O)O)NC(=O)C(C)(C)NC(=O)[C@@H](N)Cc1c[nH]cn1)[C@@H](C)O)[C@@H](C)O)C(C)C)C(C)C)C(=O)N[C@@H](CCC(=O)O)C(=O)N[C@@H](Cc1c[nH]cn1)C(=O)N[C@@H](CC(C)C)C(=O)N[C@H](C(N)=O)C(C)C [compound 92] (H-H[Aib]EGTFTSDVSVLK([AEEA-AEEA-γGlu-C20 diacid])EFAASQRFLEHLV-NH2) | 0.14 | – | 260000 | – | – | 1580 | 0.0794 | 20773
CC(C)C[C@H](NC(=O)[C@H](Cc1ccccc1)NC(=O)[C@H](CCCNC(=N)N)NC(=O)[C@H](CCC(N)=O)NC(=O)[C@H](C)NC(=O)[C@H](C)NC(=O)[C@H](C)NC(=O)[C@H](CCC(=O)O)NC(=O)[C@H](CCC(=O)O)NC(=O)[C@H](CCCCNC(=O)COCCOCCNC(=O)COCCOCCNC(=O)CC[C@H](NC(=O)CCCCCCCCCCCCCCCCCCC(=O)O)C(=O)O)NC(=O)[C@H](CC(C)C)NC(=O)[C@H](CCCNC(=N)N)NC(=O)[C@H](CO)NC(=O)[C@@H](NC(=O)[C@H](CC(=O)O)NC(=O)[C@H](CO)NC(=O)[C@@H](NC(=O)[C@H](Cc1ccccc1)NC(=O)[C@@H](NC(=O)CNC(=O)[C@H](CCC(=O)O)NC(=O)C(C)(C)NC(=O)[C@@H](N)Cc1c[nH]cn1)[C@@H](C)O)[C@@H](C)O)C(C)C)C(=O)N[C@@H](CCC(=O)O)C(=O)N[C@@H](Cc1c[nH]cn1)C(=O)N[C@@H](CC(C)C)C(=O)N[C@H](C(N)=O)C(C)C [compound 60] (H-H[Aib]EGTFTSDVSRLK([AEEA-AEEA-γGlu-C20 diacid])EEAAAQRFLEHLV-NH2) | 0.09 | 251 | 11873 | 9419 | 0.0316 | – | – | –
CC(C)C[C@H](NC(=O)[C@H](Cc1ccccc1)NC(=O)[C@H](CCCNC(=N)N)NC(=O)[C@H](CCC(N)=O)NC(=O)[C@H](CC(C)C)NC(=O)C(C)(C)NC(=O)[C@H](C)NC(=O)[C@H](CCC(=O)O)NC(=O)[C@H](CCC(=O)O)NC(=O)[C@H](CCCCNC(=O)COCCOCCNC(=O)COCCOCCNC(=O)CC[C@H](NC(=O)CCCCCCCCCCCCCCCCCCC(=O)O)C(=O)O)NC(=O)[C@H](CC(C)C)NC(=O)[C@H](Cc1ccc(O)cc1)NC(=O)[C@H](CO)NC(=O)[C@@H](NC(=O)[C@H](CC(=O)O)NC(=O)[C@H](CO)NC(=O)[C@@H](NC(=O)[C@H](Cc1ccccc1)NC(=O)[C@@H](NC(=O)CNC(=O)[C@@H](NC(=O)C(C)(C)NC(=O)[C@@H](N)Cc1c[nH]cn1)C(C)C)[C@@H](C)O)[C@@H](C)O)C(C)C)C(=O)N[C@@H](CCC(=O)O)C(=O)N[C@@H](Cc1c[nH]cn1)C(=O)N[C@@H](CC(C)C)C(=O)N[C@H](C(N)=O)C(C)C [compound 155] (H-H[Aib]VGTFTSDVSYLK([AEEA-AEEA-γGlu-C20 diacid])EEA[Aib]LQRFLEHLV-NH2) | 0.08 | – | 4368 | – | – | 25100 | 0.0126 | 1853532
